Measurements published in patent publication US4309432A, “Compositions for treating glaucoma containing a carbostyril” (priority 1979, dated 1982).
Values joined by “and” are separate entries in the source; they are usually repeats but may differ in a detail not shown here. Equal values may be shown once. Where a name gives a salt, the structure may show the parent alone.

Experiments:
intraocular pressure = assay: Efficacy Test 3: intraocular pressure in normal rabbits (Alcon pneumatic tonometer); assay type: in vivo, rabbit (male New Zealand Albino); conditions: for Intraocular pressure 30 minutes after instillation, average / Intraocular pressure 1 hour after instillation, average / Intraocular pressure 30 minutes after instillation / Intraocular pressure 1 hour after instillation: 1% (W/V), 100 μl
Protocol: Male rabbits of New Zealand Albino strain, weighing 1.8 to 2.5 kg, are used as experimental animals. Intraocular pressure is measured with an Alcon pneumatic tonometer without local anesthesia, while holding the animal in a cylindrical rabbit holder.
The test compound is dissolved in a physiological solution of NaCl to a concentration of 1% (W/V), and the resulting solution is adjusted to a pH of 6.5 to 7.0 with a 0.01 N aqueous NaOH solution. The solution is instilled to one of the eyes of the animal in an accurate amount of 100 μl with a microsyringe after measuring the intraocular pressure of the eye. The eyelid is held closed for 1 minute after the instillation to prevent the escape of the solution.
The efficacy of the test compound is determined by measuring the intraocular pressure 30 minutes and 1 hour after the instillation and comparing the measurements with the pressure measured before the instillation. A 100 μl quantity of physiological saline containing no test compound is similarly tested on a control group.

[1] = Acute Toxicity Test, intravenous, mice; assay type: in vivo; conditions: mouse, in vivo
Protocol: (§1) Active compounds useful for the glaucoma treating compositions of this invention are intravenously administered to mice to test the compounds for acute toxicity.
(§2) Other active compounds of this invention are also tested for acute toxicity in the same manner as above, i.e., by intravenously administering them to mice. The LD50 values determined are all not lower than about 40 mg/kg.

[2] = Acute toxicity, oral administration, male rats; conditions: rat, in vivo
Description: *Determined by the oral administration of Compound C to male rats.

mice = assay: Acute Toxicity Test, intravenous, mice; assay type: in vivo
Protocol: as §1, §2

In the case of `C#CCOc1ccc(OCC(O)CNCCc2ccc(OC)c(OC)c2)c2c1NC(=O)CC2.O=C(O)C(=O)O` (stereo not drawn) [Compound K, 8-Propynyloxy-5-[2-hydroxy-3-(β-3,4-dimethoxyphenethylamino)]propoxy-3,4-dihydrocarbostyril oxalate], the “Intraocular pressure 30 minutes after instillation, average” value (“Intraocular pressure 30 minutes … average” below) (intraocular pressure; average of animals) was 18.5 mm Hg, the “Intraocular pressure 1 hour after instillation, average” value (“Intraocular pressure 1 hour … average” below) (intraocular pressure; average of animals) was 18.0 mm Hg and the “Intraocular pressure before instillation, average” value (intraocular pressure; average of animals, baseline) was 19.5 mm Hg. For the same molecule, the “Intraocular pressure 30 minutes after instillation” value (intraocular pressure; individual animal) was 19 mm Hg and 18 mm Hg, the “Intraocular pressure 1 hour after instillation” value (intraocular pressure; individual animal) was 18 mm Hg and the “Intraocular pressure before instillation” value (intraocular pressure; individual animal, baseline) was 20 mm Hg and 19 mm Hg.
With `COc1ccc(CCNCC(O)COc2ccc(NC(N)=O)c3c2CCC(=O)N3)cc1OC` (stereo not drawn) [Compound J, 8-Ureido-5-[2-hydroxy-3-(β-3,4-dimethoxyphenethylamino)]propoxy-3,4-dihydrocarbostyril hydrochloride] the “Intraocular pressure 30 minutes … average” value (intraocular pressure; average of animals) was 17.5 mm Hg, the “Intraocular pressure 1 hour … average” value (intraocular pressure; average of animals) was 17.0 mm Hg and the LD50 [1] was 143 mg/kg.
With `C=CCOc1ccc(OCC(O)CNC(C)(C)C)c2c1NC(=O)CC2` (centres unmarked) [Compound M, 8-Allyloxy-5-(2-hydroxy-3-tert-butylamino)propoxy-3,4-dihydrocarbostyril hydrochloride] the “Intraocular pressure 30 minutes … average” value (intraocular pressure; average of animals) was 19.0 mm Hg, the “Intraocular pressure 1 hour … average” value (intraocular pressure; average of animals) was 18.0 mm Hg and the “Intraocular pressure 30 minutes after instillation” value (intraocular pressure; individual animal) was 19 mm Hg. The “Intraocular pressure 1 hour after instillation” value (intraocular pressure; individual animal) was 18 mm Hg.
For `COc1ccc(CCNCC(O)COc2ccc(OCC(C)=O)c3c2CCC(=O)N3)cc1OC` (stereo not drawn) [Compound C, 8-Methylcarbonylmethoxy-5-[2-hydroxy-3-(β-3,4-dimethoxyphenethylamino)]propoxy-3,4-dihydrocarbostyril oxalate], the “Intraocular pressure 30 minutes … average” value (intraocular pressure; average of animals) was 17.0 mm Hg, the “Intraocular pressure 1 hour … average” value (intraocular pressure; average of animals) was 17.0 mm Hg and the LD50 [2] was 1260 mg/kg.
With `CCNCC(O)COc1cccc2c1CCC(=O)N2` (centres unmarked) [Compound E, 5-(2-Hydroxy-3-ethylamino)propoxy-3,4-dihydrocarbostyril maleate] the “Intraocular pressure 30 minutes … average” value (intraocular pressure; average of animals) was 18.0 mm Hg and the “Intraocular pressure 1 hour … average” value (intraocular pressure; average of animals) was 17.0 mm Hg.
For `CC(C)(C)NCC(O)COc1cccc2[nH]c(=O)ccc12` (centres unmarked) [Compound B, 5-(2-Hydroxy-3-tert-butylamino)propoxycarbostyril hydrochloride], the “Intraocular pressure 30 minutes … average” value (intraocular pressure; average of animals) was 17.0 mm Hg, the “Intraocular pressure 1 hour … average” value (intraocular pressure; average of animals) was 16.5 mm Hg and the LD50 [1] was 44.6 mg/kg.
For `O=C1CCc2c(cccc2OCC(O)CNC2CCCCC2)N1` (centres unmarked) [Compound G, 5-(2-Hydroxy-3-cyclohexylamino)propoxy-3,4-dihydrocarbostyril hydrochloride], the “Intraocular pressure 30 minutes … average” value (intraocular pressure; average of animals) was 16.5 mm Hg and the “Intraocular pressure 1 hour … average” value (intraocular pressure; average of animals) was 16.5 mm Hg.
With `CC(C)NCC(O)COc1cccc2c1NC(=O)CC2` (centres unmarked) [Compound I, 8-(2-Hydroxy-3-isopropylamino)propoxy-3,4-dihydrocarbostyril hydrochloride] the “Intraocular pressure 30 minutes … average” value (intraocular pressure; average of animals) was 16.5 mm Hg, the “Intraocular pressure 1 hour … average” value (intraocular pressure; average of animals) was 16.5 mm Hg and the LD50 [1] was 81.6 mg/kg.
In the case of `O=C1CCc2c(cccc2OCC(O)CNCc2ccccc2)N1` (centres unmarked) [Compound F, 5-(2-Hydroxy-3-benzylamino)propoxy-3,4-dihydrocarbostyril hydrochloride], the “Intraocular pressure 30 minutes … average” value (intraocular pressure; average of animals) was 18.5 mm Hg and the “Intraocular pressure 1 hour … average” value (intraocular pressure; average of animals) was 18.5 mm Hg.
In the case of `CC(C)(C)NCC(O)COc1cccc2c1CCC(=O)N2` (centres unmarked) [Compound A, 5-(2-Hydroxy-3-tert-butylamino)propoxy-3,4-dihydrocarbostyril hydrochloride], the “Intraocular pressure 30 minutes … average” value (intraocular pressure; average of animals) was 17.2 mm Hg, the “Intraocular pressure 1 hour … average” value (intraocular pressure; average of animals) was 17.4 mm Hg and the LD50 (mice) was 54.4 mg/kg.
In the case of `C=CCN1C(=O)CCc2c(OCC(O)CNC(C)(C)C)cccc21` (centres unmarked) [Compound N, 1-Allyl-5-(2-hydroxy-3-tert-butylamino)propoxy-3,4-dihydrocarbostyril hydrochloride], the “Intraocular pressure 30 minutes … average” value (intraocular pressure; average of animals) was 17.5 mm Hg and the “Intraocular pressure 1 hour … average” value (intraocular pressure; average of animals) was 16.5 mm Hg.
With `COc1ccc(CCNCC(O)COc2ccc(NC(C)=O)c3c2CCC(=O)N3)cc1OC` (stereo not drawn) [Compound L, 8-Acetylamino-5-[2-hydroxy-3-(β-3,4-dimethoxyphenethylamino)]propoxy-3,4-dihydrocarbostyril hydrochloride] the “Intraocular pressure 30 minutes … average” value (intraocular pressure; average of animals) was 18.0 mm Hg, the “Intraocular pressure 1 hour … average” value (intraocular pressure; average of animals) was 17.5 mm Hg and the “Intraocular pressure 30 minutes after instillation” value (intraocular pressure; individual animal) was 18 mm Hg.
With `CCN1C(=O)CCc2c(OCC(O)CNC3CCCCC3)cccc21` (centres unmarked) [Compound H, 1-Ethyl-5-(2-hydroxy-3-cyclohexylamino)propoxy-3,4-dihydrocarbostyril hydrochloride] the “Intraocular pressure 30 minutes … average” value (intraocular pressure; average of animals) was 15.5 mm Hg and the “Intraocular pressure 1 hour … average” value (intraocular pressure; average of animals) was 15.5 mm Hg.
With `COc1ccc(CCNCC(O)COc2ccc(O)c3c2CCC(=O)N3)cc1OC` (stereo not drawn) [Compound D, 8-Hydroxy-5-[2-hydroxy-3-(β-3,4-dimethoxyphenethylamino)]propoxy-3,4-dihydrocarbostyril hydrochloride] the “Intraocular pressure 30 minutes … average” value (intraocular pressure; average of animals) was 17.0 mm Hg, the “Intraocular pressure 1 hour … average” value (intraocular pressure; average of animals) was 14.0 mm Hg and the “Intraocular pressure 30 minutes after instillation” value (intraocular pressure; individual animal) was 17 mm Hg.
